Peptide text beside a SMILES is read from it.
Legend:
injured brain [1] = conditions: mouse, in vivo, iv; cited from earlier work
Text: We have previously identified a tetrapeptide, CAQK, that accumulates in the ECM of the injured brain. […] We reasoned that knowing the target molecule CAQK binds to would likely give hints of the possible nature of such an activity. Previous work has shown that CAQK binds to a chondroitin sulfate proteoglycan (CSPG)-rich protein complex, the expression of which is elevated following an inju ... || Given the CAQK accumulation in the injured brain and binding to TnC in injured ECM, and the functional activities observed with other homing peptides, it seemed possible that CAQK might affect the course of TBI. To prepare for functional testing of CAQK, we performed CAQK half-life analyses using a mouse model of CCI. […] Initial clearance from the circulation through glomerular filtration is expected for a small peptide, explaining the short half-life. A small per ...

[2] = CAQK plasma clearance in rats; format: in vivo, rat
Protocol: Figure EV2 CAQK plasma clearance in rats. (A) CAQK was injected daily i.v. in healthy adult Sprague-Dawley rats at a 10 mg/kg dose for 7 days. Blood was collected at different time points at Day 1 and Day 7, and plasma was analyzed by LC/MS to analyze CAQK. Plasma concentration of CAQK was plotted. N = 3 per time point. Plasma clearance data were also used to calculate pharmacokinetic parameters in (B). (C) FP measurement of CAQK binding to BSA. FAM-CAQK (20 nM) was incubated with BSA at the indicated concentration for 1 h at 37 °C. n = 3.
(§1) CAQK (12.5 mg/kg) was injected i.v. into mice with CCI at 4 h post-injury. Blood was collected from these mice at different time points, and plasma was processed and analyzed by LC/MS after a reduction and alkylation step under reducing conditions to capture total peptide (free peptide and peptide bound to plasma proteins by disulfide formation). Plasma concentration was plotted using WinNonlin. Similarly, for analysis in rats, CAQK (10 mg/kg) was injected i.v. into healthy Sprague-Dawley rats once daily for 7 days. Blood was collected at different time points at Day 1 and Day, 7 and plasma was analyzed by LC/MS to analyze CAQK. Plasma concentration of CAQK was plotted. N = 3 per time point.

injured brain [3] = conditions: mouse, in vivo
Protocol: (§2) Figure 2 Pharmacokinetic analysis of CAQK. (A) Mice with CCI received i.v. bolus of CAQK (12.5 mg/kg) at 4 h after CCI. Blood was collected at different time points, and plasma was analyzed by LC/MS. Plasma concentration of CAQK was plotted using WinNonlin. N = 3 per time point. (B) Plasma clearance data were used to calculate pharmacokinetic parameters using a two-compartment analysis. (C) CAQK accumulation was analyzed in brain homogenates from injured (ipsilateral) and uninjured (contralateral) sides at different time points after i.v. injection and plotted as ng/g of brain tissue. N = 3/group. Data were expressed as mean ± SEM. Differences were analyzed using an unpaired t-test. […] vs contralateral side. […] It is not in the table of panel B, so it is not attached as a condition.
as §1, with “Similarly, for analysis in rats, CAQK (10 mg/kg) was injected i.v. into healthy Sprague-Dawley rats once daily for 7 days.” left out, “Plasma concentration of CAQK was plotted. N = 3 per time point.” left out

in vivo = conditions: mouse, iv, 12.5 mg/kg
Protocol: as §2, §1

Safety study in CCI mice = format: in vivo, mouse; conditions: for ALP / ALT / BUN / GGT / TBIL: CCI mice, blood after two weeks, n = 5; for ALP / ALT / BUN: mean ± SD
Protocol: Male C57BL/6 mice (n = 5 per group) with CCI injury were intravenously administered daily with control PBS or with various concentrations (1, 5, and 25 mg/kg) of the CAQK peptide. After 2 weeks, blood was collected from the mice and analyzed for liver and kidney toxicity. Tests performed for liver function (ALP: alkaline phosphatase, ALT: alanine aminotransferase, TBIL total bilirubin, GGT G-glutamyl transferase) and kidney function (BUN: blood urea nitrogen). Results expressed as mean ± SD. For a more detailed safety analysis, Sprague-Dawley rats were randomized to four dose groups. CAQK or vehicle (0.9% sodium chloride injection, USP) was administered once daily by i.v. administration to male and female rats at 0 (vehicle),10, 100, or 300 mg/kg/day (Groups 1–4, respectively) for 7 consecutive days. All animals were euthanized and necropsied after blood sample collection for clinical pathology on Day 8. All animals in Groups 1–4 were evaluated for clinical observations, body weights, and clinical pathology (hematology, coagulation, and serum chemistry), gross necropsy observations and major organ weights. […]
Appendix Table S2. Safety study in CCI mice. C57BL/6 mice (n = 5 per group) with CCI injury were intravenously injecteddaily for 7 days with vehicle control (PBS)or with the shown concentration of the CAQK peptide. After two weeks, blood was collected from the mice and analyzed for liver and kidney toxicity. Tests performed for liver function:ALP:
Alkaline Phosphatase, ALT: Alanine Aminotransferase, TBIL-total bilirubin, GGT -G-glutamyl transferase,and for kidney function:BUN: Blood urea nitrogen. Results

half-life after single injection versus daily injections over a week ([2]; healthy Sprague-Dawley rats, 10 mg/kg i.v. daily for 7 days, Day 1 and Day 7): remained the same
pK profile after 7-day repeat dosing ([2]; repeat IV dosing, 7 days): unaltered
AUC(0-inf) (in vivo): 27800 ng·h/mL
AUC(0-t) (in vivo): 27400 ng·h/mL
C0 (in vivo): 45100 ng/mL
CL2 (in vivo): 13 mL/min/kg
MRT (in vivo): 4.2 h
T1/2, initial rapid clearance from the blood (in vivo): 9 min
T1/2, second elimination phase (in vivo): 4.1 h
V1 (in vivo): 0.28 L/kg
V2 (in vivo): 1.6 L/kg
Vd (in vivo): 1.9 L/kg
clearance (in vivo): 7.5 mL/min/kg
half-life (in vivo): 4.2 h
k10 (in vivo): 1.6 h⁻¹
k12 (in vivo): 2.8 h⁻¹
k21 (in vivo): 0.48 h⁻¹
t1/2Alpha (in vivo): 9 min
SMILES: C[C@H](NC(=O)[C@@H](N)CS)C(=O)N[C@@H](CCC(N)=O)C(=O)N[C@@H](CCCCN)C(N)=O [CAQK, cysteine-alanine-glutamine-lysine] (H-CAQK-NH2)
accumulation in other organs (injured brain [1]): No other organs showed peptide accumulation except the kidneys
estimated half-life in the brain (injured brain [3]): about 5.8 h
accumulation in the injured side of the brain versus the contralateral side (injured brain [3]; iv): over eightfold
ALP (Safety study in CCI mice; 1 mg/kg i.v. daily for 7 days): 45 ± 5.3 U/L
ALT (Safety study in CCI mice; 1 mg/kg i.v. daily for 7 days): 24.3 ± 6.8 U/L
BUN (Safety study in CCI mice; 1 mg/kg i.v. daily for 7 days): 21.3 ± 3.5 mg /bL
GGT (Safety study in CCI mice; 1 mg/kg i.v. daily for 7 days): < 5 U/L
TBIL (Safety study in CCI mice; 1 mg/kg i.v. daily for 7 days): 0.3 mg/dL
ALP (Safety study in CCI mice; 5 mg/kg i.v. daily for 7 days): 47.4 ± 8.2 U/L
ALT (Safety study in CCI mice; 5 mg/kg i.v. daily for 7 days): 23.4 ± 4.9 U/L
BUN (Safety study in CCI mice; 5 mg/kg i.v. daily for 7 days): 22.2 ± 1 mg /bL
GGT (Safety study in CCI mice; 5 mg/kg i.v. daily for 7 days): < 5 U/L
TBIL (Safety study in CCI mice; 5 mg/kg i.v. daily for 7 days): 0.3 mg/dL
ALP (Safety study in CCI mice; 25 mg/kg i.v. daily for 7 days): 42.6 ± 7.6 U/L
ALT (Safety study in CCI mice; 25 mg/kg i.v. daily for 7 days): 34.8 ± 13.2 U/L
BUN (Safety study in CCI mice; 25 mg/kg i.v. daily for 7 days): 24.8 ± 2.05 mg /bL
GGT (Safety study in CCI mice; 25 mg/kg i.v. daily for 7 days): < 5 U/L
TBIL (Safety study in CCI mice; 25 mg/kg i.v. daily for 7 days): 0.3 mg/dL
effects on body weight, organ weight, or clinical pathology (Safety study in CCI mice; TBI mice, daily i.v. doses (1, 5, and 25 mg/kg)): no effects
